Source: ChEMBL document CHEMBL1201862, “PubChem BioAssay data set” (2004)
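Tested at 5 concentrations; 48 h exposure; 96-well plates; endpoints linearly interpolated, else capped at highest concentration. GI50 marks 50% less growth.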 Activity calls are given as the source filed them. Rule as the data show it: active = GI50 up to about 1.1 µM and inactive = higher.

Columns and labels:
Test in all cases: growth of human tumour cells (NCI), 48 h
[1] = tested on: SW-620
[2] = tested on: UO-31
[3] = tested on: HCT-116
[4] = tested on: LOX IMVI
[5] = tested on: UACC-62
[6] = tested on: SF-268
[7] = tested on: A549
[8] = tested on: RXF 393
[9] = tested on: HOP-62
[10] = tested on: OVCAR-5
[11] = tested on: EKVX
[12] = tested on: NCI/ADR-RES
[13] = tested on: CCRF-CEM
[14] = tested on: HCC 2998
[15] = tested on: Malme-3M
[16] = tested on: HT-29
[17] = tested on: M14
[18] = tested on: HCT-15
[19] = tested on: UACC-257

CC(C)(C)N(Cc1ccccc1)C(=O)/C=C\[S+]([O-])c1ccccc1 (centres undefined)
GI50 [1]: 2.15 µM (inactive) | GI50 [2]: 2.34 µM (inactive) | GI50 [3]: 2.43 µM (inactive) | GI50 [4]: 1.73 µM (inactive) | GI50 [5]: 4.39 µM (inactive) | GI50 [6]: 2.07 µM (inactive) | GI50 [7]: 11.5 µM (inactive) | GI50 [8]: 3.8 µM (inactive) | GI50 [9]: 8.24 µM (inactive) | GI50 [10]: 13.6 µM (inactive) | GI50 [11]: 10.5 µM (inactive) | GI50 [12]: 2.55 µM (inactive) | GI50 [13]: 1.35 µM (inactive) | GI50 [14]: 6.28 µM (inactive) | GI50 [15]: 1.69 µM (inactive) | GI50 [16]: 4.11 µM (inactive) | GI50 [17]: 2.51 µM (inactive) | GI50 [18]: 3.75 µM | GI50 [19]: 5.08 µM (inactive)

CCN(CC)C(=O)Cn1c(-c2ccccc2)cc2ccccc21
GI50 [1]: 43.2 µM (inactive) | GI50 [2]: 17.5 µM (inactive) | GI50 [3]: 24.8 µM (inactive) | GI50 [4]: 25.4 µM (inactive) | GI50 [5]: > 10 µM (inactive) | GI50 [6]: 29 µM (inactive) | GI50 [7]: 33 µM (inactive) | GI50 [8]: 22.9 µM (inactive) | GI50 [9]: 57.5 µM (inactive) | GI50 [10]: 43.1 µM (inactive) | GI50 [11]: 16.6 µM (inactive) | GI50 [12]: 23.4 µM (inactive) | GI50 [13]: 24.3 µM (inactive) | GI50 [14]: 78.7 µM (inactive) | GI50 [15]: 80.4 µM (inactive) | GI50 [16]: 29 µM (inactive) | GI50 [17]: 87.3 µM (inactive) | GI50 [18]: 43.3 µM | GI50 [19]: 41.9 µM (inactive)

CCCC(=O)OC[n+]1ccc(-c2c(COC(=O)NC(C)C)c(COC(=O)NC(C)C)c3n2CCC3)cc1
GI50 [1]: > 100 µM (inactive) | GI50 [2]: > 100 µM (inactive) | GI50 [3]: > 100 µM (inactive) | GI50 [4]: > 100 µM (inactive) | GI50 [5]: 47 µM (inactive) | GI50 [6]: 65.8 µM (inactive) | GI50 [7]: > 100 µM (inactive) | GI50 [8]: 34.5 µM (inactive) | GI50 [9]: 84.1 µM (inactive) | GI50 [10]: > 100 µM (inactive) | GI50 [11]: > 100 µM (inactive) | GI50 [12]: > 100 µM (inactive) | GI50 [13]: 44.6 µM (inactive) | GI50 [14]: > 100 µM (inactive) | GI50 [15]: > 100 µM (inactive) | GI50 [16]: > 100 µM (inactive) | GI50 [17]: > 100 µM (inactive) | GI50 [18]: > 100 µM | GI50 [19]: > 100 µM (inactive)

Cc1cccc(NC(Nc2cccc(C)c2)=C(C(Cl)=C(Cl)Cl)[N+](=O)[O-])c1
GI50 [1]: 14.8 µM (inactive) | GI50 [2]: 11.8 µM (inactive) | GI50 [3]: 5.31 µM (inactive) | GI50 [4]: 8.99 µM (inactive) | GI50 [5]: 13.4 µM (inactive) | GI50 [6]: 13.6 µM (inactive) | GI50 [7]: 22 µM (inactive) | GI50 [8]: 3.94 µM (inactive) | GI50 [9]: 16.7 µM (inactive) | GI50 [10]: 19.6 µM (inactive) | GI50 [11]: 18.1 µM (inactive) | GI50 [12]: 14 µM (inactive) | GI50 [13]: 63.5 µM (inactive) | GI50 [14]: 22.8 µM (inactive) | GI50 [15]: 14.4 µM (inactive) | GI50 [16]: 15.3 µM (inactive) | GI50 [17]: 16.1 µM (inactive) | GI50 [18]: 13.1 µM | GI50 [19]: 19.3 µM (inactive)

O=C(O)c1cc(N(Cc2ccccc2O)Cc2cc(O)ccc2O)ccc1O [LAVENDUSTIN A]
GI50 [1]: > 100 µM (inactive) | GI50 [2]: > 100 µM (inactive) | GI50 [3]: > 100 µM (inactive) | GI50 [4]: 34.9 µM (inactive) | GI50 [5]: > 100 µM (inactive) | GI50 [6]: > 100 µM (inactive) | GI50 [7]: > 100 µM (inactive) | GI50 [8]: > 100 µM (inactive) | GI50 [9]: > 100 µM (inactive) | GI50 [10]: > 100 µM (inactive) | GI50 [11]: > 100 µM (inactive) | GI50 [12]: > 100 µM (inactive) | GI50 [13]: 45.4 µM (inactive) | GI50 [14]: > 100 µM (inactive) | GI50 [15]: > 100 µM (inactive) | GI50 [16]: > 100 µM (inactive) | GI50 [17]: > 100 µM (inactive) | GI50 [18]: > 100 µM | GI50 [19]: > 100 µM (inactive)

C=C1CCCC(C)(C)C1CCC1(C)CCC(C(C)C(=O)OC)OO1 (centres undefined)
GI50 [1]: 7.6 µM (inactive) | GI50 [2]: 0.748 µM (active) | GI50 [3]: 8.45 µM (inactive) | GI50 [4]: 0.471 µM (active) | GI50 [5]: 5.62 µM (inactive) | GI50 [6]: 3.57 µM (inactive) | GI50 [7]: 1.28 µM (inactive) | GI50 [8]: 4.04 µM (inactive) | GI50 [9]: 0.706 µM (active) | GI50 [10]: 6.75 µM (inactive) | GI50 [11]: 7.91 µM (inactive) | GI50 [12]: 7.08 µM (inactive) | GI50 [13]: 2.43 µM (inactive) | GI50 [14]: 4.37 µM (inactive) | GI50 [15]: > 22.9 µM (inactive) | GI50 [16]: 2.04 µM (inactive) | GI50 [17]: 9.66 µM (inactive) | GI50 [18]: 15.5 µM | GI50 [19]: > 20.2 µM (inactive)
